From US20260207621A1 (Vividion Therapeutics, Inc., priority 2022, published 2026)

How the values were obtained:
KEAP1 C151 = biological target: T1, KEAP1 C151 (Homo sapiens, UniProt Q14145); experiment: Nrf2 TMT measurement: in vitro TE50 for KEAP1 C151 (IA-DTB competition, targeted TMT mass spectrometry) in MDA-MB-468 cell lysate; format: binding; details: in vitro target engagement of KEAP1 C151, targeted TMT, read-out: KEAP1_C151 TE50
T1 construct: treating 500 μg of cell lysate generated from MDA-MB-468 breast cancer cells with DMSO or compound; endogenous in cells; host or cells: MDA-MB-468 breast cancer cell lysate
T1 sequence (Q14145 whole entry): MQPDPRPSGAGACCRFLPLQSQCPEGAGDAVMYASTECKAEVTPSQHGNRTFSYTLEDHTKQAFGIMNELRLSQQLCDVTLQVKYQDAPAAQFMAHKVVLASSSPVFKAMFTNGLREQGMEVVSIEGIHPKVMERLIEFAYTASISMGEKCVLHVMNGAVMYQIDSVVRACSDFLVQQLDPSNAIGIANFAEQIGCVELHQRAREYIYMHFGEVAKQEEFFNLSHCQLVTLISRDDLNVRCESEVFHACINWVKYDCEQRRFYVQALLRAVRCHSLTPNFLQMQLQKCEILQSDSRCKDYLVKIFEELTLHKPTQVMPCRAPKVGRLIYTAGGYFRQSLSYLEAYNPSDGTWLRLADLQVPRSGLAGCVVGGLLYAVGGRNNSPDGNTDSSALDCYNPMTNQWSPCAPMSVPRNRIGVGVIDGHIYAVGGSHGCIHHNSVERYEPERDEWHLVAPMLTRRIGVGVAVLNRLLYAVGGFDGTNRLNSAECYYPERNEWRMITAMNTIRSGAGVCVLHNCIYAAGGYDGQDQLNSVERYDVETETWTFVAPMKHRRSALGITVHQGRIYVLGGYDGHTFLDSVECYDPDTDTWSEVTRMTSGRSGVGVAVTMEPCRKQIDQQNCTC
In short: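 MDA-MB-468 lysate (500 μg) treated with compound for 1 h at room temperature, then 200 μM IA-DTB for 1 h. Labeled peptides streptavidin-enriched after trypsin digest, TMT-labeled and quantified by targeted MS3 on the KEAP1 C151 peptide. IC50 from dose-response curve fitting.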

Nrf2 = Nrf2 antagonism assay: ARE luciferase reporter in KYSE-70 cells; format: cell-based; details: Homo sapiens, KYSE-70, KYSE-70 cells, positive Imax corresponds to Nrf2 antagonism, read-out: KYSE70 Cellular ARE Luciferase Imax (%)
In short: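 KYSE-70 esophageal squamous carcinoma cells carrying Nrf2 W24C (constitutively Nrf2-high) with an ARE-driven luciferase reporter. Loss of luciferase signal reflects Nrf2 antagonism via KEAP1 C151 engagement. IC50 and Imax come from dose-response curves; positive Imax means antagonism.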

Row | Compound | IC50 (KEAP1 C151) | Emax (Nrf2)
1 | C=CC(=O)N1CCOC[C@H]1c1cc(Cl)cc(N2CCN=C(N)C2)c1 (single isomer, unassigned) [Compound 244] | 150 nM | 81%
2 | C=CC(=O)N1C[C@@H](C)N(C(=O)C2CC2)C[C@H]1c1cc(Cl)cc(-c2ncc(N)cn2)c1 (single isomer, unassigned) [Compound 245] | 90 nM | 53%
3 | C=CC(=O)N1CC(C)(C)S(=O)(=O)CC1c1cc(Cl)cc(-c2nccc(N)n2)c1 (single isomer, unassigned) [Compound 246, 1-(5-(3-(4-aminopyrimidin-2-yl)-5-chlorophenyl)-2,2-dimethyl-1,1-dioxidothiomorpholino)prop-2-en-1-one] | 43 nM | 90%
4 | C=CC(=O)N1CCC(F)(F)CC1c1cc(Cl)cc(-c2ncc(N)cn2)c1 (single isomer, unassigned) [Compound 247, 1-(2-(3-(5-aminopyrimidin-2-yl)-5-chlorophenyl)-4,4-difluoropiperidin-1-yl)prop-2-en-1-one] | 16 nM | 91%
5 | C=CC(=O)N1CCOC[C@H]1c1cc(Cl)cc(-c2ncc(NC(C)=O)cn2)c1 (single isomer, unassigned) [Compound 248] | 10 nM | 89%
6 | C=CC(=O)N1CC2(CC2)S(=O)(=O)CC1c1cc(Cl)cc(-c2nccc(N)n2)c1 (single isomer, unassigned) [Compound 249, 1-(6-(3-(4-aminopyrimidin-2-yl)-5-chlorophenyl)-4,4-dioxido-4-thin-7-azaspiro[2.5]octan-7-yl)prop-2-en-1-one] | 5.3 nM | 89%
7 | C=CC(=O)N1CCOC[C@H]1c1cc(Cl)cc(-c2cncc(N)n2)c1 (single isomer, unassigned) [Compound 250] | 36 nM | 92%
8 | C=CC(=O)N1CCOC[C@H]1c1cc(Cl)cc(-c2cnc(N)cn2)c1 (single isomer, unassigned) [Compound 251] | 17 nM | 93%
9 | C=CC(=O)N1CCOC[C@H]1c1cc(Cl)cc(-c2ncc(N)c(OC)n2)c1 (single isomer, unassigned) [Compound 254] | 86 nM | 92%
10 | C=CC(=O)N1CCOC[C@H]1c1cc(Cl)cc(-c2cnc(N)c(OC)n2)c1 (single isomer, unassigned) [Compound 255] | 50 nM | 93%
11 | C=CC(=O)N1CCOC[C@H]1c1cc(Cl)cc(-c2nccc(NC(C)=O)n2)c1 (single isomer, unassigned) [Compound 256] | 86 nM | 63%
12 | C=CC(=O)N1CCOC[C@H]1c1cc(Cl)cc(-c2cnc(N)c(N)n2)c1 (single isomer, unassigned) [Compound 258] | 16 nM | 93%
13 | C=CC(=O)N1CCOC[C@H]1c1cc(Cl)cc(-c2cnc(OC)c(N)n2)c1 (single isomer, unassigned) [Compound 259] | 140 nM | 93%
14 | C=CC(=O)N1CCOC[C@H]1c1cc(Cl)cc(-c2ncc(F)c(N)n2)c1 (single isomer, unassigned) [Compound 263] | 19 nM | 93%
15 | C=CC(=O)N1CC[C@@](C)(O)C[C@@H]1c1cc(Cl)cc(-c2ncc(N)cn2)c1 (single isomer, unassigned) [Compound 264] | 160 nM | 86%
16 | C=CC(=O)N1CC[C@](C)(O)C[C@H]1c1cc(Cl)cc(-c2ncc(N)cn2)c1 (single isomer, unassigned) [Compound 265] | 11200 nM | 51%
17 | C=CC(=O)N1CC[C@](C)(O)C[C@@H]1c1cc(Cl)cc(-c2ncc(N)cn2)c1 (single isomer, unassigned) [Compound 266] | 320 nM | 90%
18 | C=CC(=O)N1CC2(CC2)N(C(=O)C2CC2)CC1c1cc(Cl)cc(-c2ncc(N)cn2)c1 (single isomer, unassigned) [Compound 267] | 10 nM | 94%
19 | C=CC(=O)N1CCOC[C@H]1c1cc(Cl)cc(-c2nc(Cl)ncc2N)c1 (single isomer, unassigned) [Compound 268] | 490 nM | 53%
20 | C=CC(=O)N1CCOC[C@H]1c1cc(Cl)cc(-c2c[nH]nn2)c1 (single isomer, unassigned) [Compound 269] | 950 nM | 72%
21 | C=CC(=O)N1CCOC[C@H]1c1cc(Cl)cc(-c2cc(N)nc(Cl)n2)c1 (single isomer, unassigned) [Compound 271] | 59 nM | 93%

Row | Compound | IC50 (KEAP1 C151) | Emax (Nrf2)
22 | C=CC(=O)N1CCOC[C@H]1c1cc(Cl)cc(-c2ncc(N)c(F)n2)c1 (single isomer, unassigned) [Compound 278] | 6.1 nM | 87%
23 | C=CC(=O)N1CCOC[C@H]1c1cc(Cl)cc(-c2cnc(F)c(N)n2)c1 (single isomer, unassigned) [Compound 279] | 45 nM | 92%
24 | C=CC(=O)N1CCOC[C@H]1c1cc(Cl)cc(-c2nc(N)cnc2F)c1 (single isomer, unassigned) [Compound 280] | 32 nM | 90%
25 | C=CC(=O)N1CCC(F)(F)CC1c1cc(Cl)cc(-c2ccnc(C)n2)c1 (single isomer, unassigned) [Compound 281, 1-(2-(3-chloro-5-(2-methylpyrimidin-4-yl)phenyl)-4,4-difluoropiperidin-1-yl)prop-2-en-1-on] | 61 nM | 84%
26 | C=CC(=O)N1CCOC[C@H]1c1cc(Cl)cc(-c2cc(N)nc(F)n2)c1 (single isomer, unassigned) [Compound 283] | 18 nM | 94%
27 | C=CC(=O)N1CCC(F)(F)CC1c1cc(Cl)cc(-c2ccnc(N)n2)c1 (single isomer, unassigned) [Compound 284, 1-(2-(3-(2-aminopyrimidin-4-yl)-5-chlorophenyl)-4,4-difluoropiperidin-1-yl)prop-2-en-1-one] | 83 nM | 94%
28 | C=CC(=O)N1CCC(F)(F)CC1c1cc(Cl)cc(-c2cc(C)ncn2)c1 (single isomer, unassigned) [Compound 285, 1-(2-(3-chloro-5-(6-methylpyrimidin-4-yl)phenyl)-4,4-difluoropiperidin-1-yl)prop-2-en-1-one] | 22 nM | 83%
29 | C=CC(=O)N1CC(C)(C)OC[C@H]1c1cc(Cl)cc(-c2cnc(N)c(N)n2)c1 (single isomer, unassigned) [Compound 286] | 32 nM | 96%
30 | C=CC(=O)N1CC(C)(C)OC[C@H]1c1cc(Cl)cc(-c2ncc(N)c(N)n2)c1 (single isomer, unassigned) [Compound 287] | 110 nM | 96%
31 | C=CC(=O)N1[C@H](c2cc(Cl)cc(-c3ccnc(N)n3)c2)COC[C@H]1C(F)F (single isomer, unassigned) [Compound 290] | 15 nM | 93%
32 | C=CC(=O)N1[C@H](c2cc(Cl)cc(-c3ncc(N)cn3)c2)COC[C@H]1C(F)F (single isomer, unassigned) [Compound 291] | < 6.4 nM | 93%
33 | C=C(Cl)C(=O)N1CCOC[C@H]1c1cc(Cl)cc(-c2ncnc(N)n2)c1 (single isomer, unassigned) [Compound 294] | 1380 nM | 91%
34 | C=C(C(=O)N1CCOC[C@H]1c1cc(Cl)cc(-c2ncnc(N)n2)c1)C(F)(F)F (single isomer, unassigned) [Compound 295] | 200 nM | 88%
35 | C=CC(=O)N1CCOC[C@H]1c1cc(Cl)cc(-c2cc3[nH]ccc3cn2)c1 (single isomer, unassigned) [Compound 296] | 36 nM | 96%
36 | C=CC(=O)N1CCOC[C@H]1c1cc(Cl)cc(-c2cc(C(N)=O)ccn2)c1 (single isomer, unassigned) [Compound 298] | 32 nM | 94%
37 | C=CC(=O)N1CCOC[C@H]1c1cc(Cl)cc(-c2c[nH]c(N)n2)c1 [Compound 193, (R)-1-(3-(3-(2-amino-1H-imidazol-4-yl)-5-chlorophenyl)morpholino)prop-2-en-1-one] | 97 nM | 91%
38 | C=CC(=O)N1CCOC[C@H]1c1cc(Cl)cc(-n2cnc(N)n2)c1 [Compound 215, (R)-1-(3-(3-(3-amino-1H-1,2,4-triazol-1-yl)-5-chlorophenyl)morpholino)prop-2-en-1-one] | 350 nM | 65%
39 | C=CC(=O)N1CCOC[C@H]1c1cc(Cl)cc(-c2ncc(N)c(N)n2)c1 [Compound 253, (R)-1-(3-(3-chloro-5-(4,5-diaminopyrimidin-2-yl)phenyl)morpholino)prop-2-en-1-one] | 50 nM | 93%
40 | C=CC(=O)N1CCOC[C@H]1c1cc(Cl)cc(-c2ncc(OC)c(N)n2)c1 [Compound 261, (R)-1-(3-(3-(4-amino-5-methoxypyrimidin-2-yl)-5-chlorophenyl)morpholino)prop-2-en-1-one] | 19 nM | 95%
41 | C=CC(=O)N1CCOC[C@H]1c1cc(Cl)cc(-c2cnc(N)c(F)n2)c1 [Compound 289, (R)-1-(3-(3-(5-amino-6-fluoropyrazin-2-yl)-5-chlorophenyl)morpholino)prop-2-en-1-one] | < 6.4 nM | 95%
